Data: patent publication US5776673A, “Treatment and detection of tuberculosis, leprosy, and related diseases” (priority 1995, dated 1998)

Assays:
T7 DNA polymerase [1] = molecular target: T1, T7 DNA polymerase (Escherichia phage T7, UniProt P00581, DEL118-145); format: biochemical, Bacteriophage T7; settings: for percentage of counts in the first three dideoxy-terminated fragments to the total number of counts in the primers capable of being extended: 100 μM 4dNTPs and 100 μM of one ddNTP; for M, calculated exponential decay function: 1:1 dNTP:ddNTP, fit Y=e^M*X; for Incorporation Rate Ratios dN/ddN: absolute ratios from 1:1 dNTP:ddNTP test; for D, discrimination factor, ratio of use of dNTP to comparable ddNTP: equal concentrations, D=Y/(1-Y) at X=1
Experimental: (§1) Reaction conditions are used that are optimum for the DNA polymerase being tested with regard to buffer, pH, salts, and temperature of the reaction. A concentration of DNA polymerase is chosen whereby most of the primers are extended in a 10 min reaction and are terminated by the incorporation of a dideoxynucleotide. The reaction mixture contains 100 μM 4dNTPs and 100 μM of one of the four ddNTPs.
(§2) We used this test to compare the ability of six DNA polymerases to incorporate each of the four ddNMPs.
(§3) The reaction mixtures also contained 10 ng of yeast inorganic pyrophosphatase to inhibit pyrophosphorolysis that could otherwise increase the apparent discrimination by the DNA polymerase (Tabor and Richardson 265 J. Biol. Chem. 8322, 1990). The reactions were initiated by the addition of 2 μl of each DNA polymerase, diluted in 20 mM Tris.HCl, pH 7.5, 10 mM 2-mercaptoethanol and 0.05% bovine serum albumin to a concentration of approximately 0.025 units/μl. […] The reactions were terminated by the addition of 10 μl 90% formamide, 20 mM EDTA, 0.05% bromphenol blue. Each sample was heated at 90° C. for 2 min immediately prior to loading 6 μl of each sample onto a gel consisting of 8% polyacrylamide, 0.4% N,N'-methylenebisacrylamide, 7M urea in 100 mM Tris borate, pH 8.3, 1 mM EDTA. Electrophoresis was at 2000 Volts for 90 min (until the bromphenol blue had just run off the bottom of the gel). After electrophoresis, the gel was dried under vacuum, and autoradiographed. After autoradiography, the distribution of radioactively labeled fragments was determined by Phosphorimager analysis (Molecular Dynamics). Alternatively, the relative intensities of dideoxy-terminated bands can be determined by scanning the autoradiograph using an instrument such as the SciScan 5000 imaging densitometer (United States Biochemical Corp).
(§4) The distribution of radioactivity in the fragments was quantitated by Phosphoimager analysis (Molecular Dynamics). The total amount of labeled primers in each lane was determined by running three control reactions in which no DNA polymerase was present, and the radioactivity in each of the corresponding radioactive bands on the gel at the position of the unextended primer was determined. […] This value is defined as the total number of counts in primers that are capable of being extended by a DNA polymerase.
(§5) The values are presented in the Table below as the percentage of counts in the first three dideoxy-terminated fragments to the total number of counts in the primers capable of being extended by a DNA polymerase.
(§6) As a further test of the efficiency of each DNA polymerase to incorporate dideoxynucleotides, the number of counts in each fragment with a significant signal was determined for each reaction, and the data were plotted as a function of the fragment number using the Macintosh program Kaleidograph Version 3.0 (Synergy Software). The resulting plots were fit to an exponential decay curve using the Kaleidograph library routine for this function. The decay curve is given by the equation: […]

Taq DNA polymerase F667Y [2] = molecular target: T2, Taq DNA polymerase F667Y (Thermus aquaticus, UniProt P19821, F667Y); assay: Competition of dATP and ddATP at a single site in synthetic Primer-Template A (Example 4); format: biochemical; settings: 10 μM dATP; read-out: [ddATP] for 50% inhibition
Experimental: (§7) Example 4. Determination of the efficiency of incorporation of dideoxynucleotides by measuring the incorporation of [α-^32 P]dAMP into synthetic primer-template complexes
(§8) In this example the competition between a dNTP and a ddNTP is assayed for use at a single site in a synthetic primer-template. This assay differs from the others in that it limits the comparison of the use of the two substrates to a single site, avoiding the complication of sequence-specific variability in discrimination. […]
(§9) Each reaction mixture contains 25 pmoles each of primer and template. […] The mixtures are incubated at 37° C. for 1 min (70° C. for thermophilic DNA polymerases), and the reactions are initiated by the addition of 5 μl aliquots (0.01 to 1 unit) of the DNA polymerase being analyzed diluted in 20 mM Tris.HCl, pH 7.5, 10 mM 2-mercaptoethanol and 0.05% bovine serum albumin. […] The disks are then dried under a heat lamp and counted in a scintillation counter in 5 ml of fluor (Opti-Fluor O, Packard). From the amount of radioactivity on each disk, the amount [^32 P]dGMP incorporated was determined. […]
(§10) All reactions are carried out with a constant amount of the DNA polymerase being analyzed; the amount of DNA polymerase should be sufficient to replicate 50% of the total […] residues in the single-stranded region of the template in the 10 min incubation in the presence of 10 μM DATP and the absence of ddATP. […]

Taq DNA polymerase [3] = molecular target: T3, Taq DNA polymerase (Thermus aquaticus, UniProt P19821); assay: as above; format: biochemical; settings: 10 μM dATP; read-out: [ddATP] for 50% inhibition
Experimental: as §7, §8, §9, §10

E. coli DNA polymerase I [4] = molecular target: T4, E. coli DNA polymerase I (Escherichia coli, UniProt P00582); assay: as above; format: biochemical; design: The large fragment of E. coli DNA polymerase I, commonly called the Klenow fragment; settings: 10 μM dATP; read-out: [ddATP] for 50% inhibition
Experimental: as §7, §8, §9, §10

T7 DNA polymerase Y526F [5] = molecular target: T5, T7 DNA polymerase Y526F (Escherichia phage T7, UniProt P00581, DEL118-145/Y526F); assay: as above; format: biochemical, Bacteriophage T7; settings: 10 μM dATP; read-out: [ddATP] for 50% inhibition
Experimental: as §7, §8, §9, §10

T7 DNA polymerase [6] = molecular target: T1, T7 DNA polymerase; assay: as above; format: biochemical, Bacteriophage T7; settings: 10 μM dATP; read-out: [ddATP] for 50% inhibition
Experimental: as §7, §8, §9, §10

Taq DNA polymerase [7] = molecular target: T3, Taq DNA polymerase; settings: 10 μM 4 dNTPs, ddNTP 100 to 2,000 μM; factor versus F667Y multiplied by its absolute ratio
T7 DNA polymerase Y526F [8] = molecular target: T5, T7 DNA polymerase Y526F; settings: 10 μM 4 dNTPs, ddNTP 100 to 2,000 μM; factor versus T7 DNA polymerase multiplied by its absolute ratio
Taq DNA polymerase F667Y [9] = molecular target: T2, Taq DNA polymerase F667Y; format: biochemical; settings: for M, calculated exponential decay function: 1:1 dNTP:ddNTP, fit Y=e^M*X; for Incorporation Rate Ratios dN/ddN: absolute ratios from 1:1 dNTP:ddNTP test; for D, discrimination factor, ratio of use of dNTP to comparable ddNTP: equal concentrations, D=Y/(1-Y) at X=1
Experimental: as §1, §2, §3, §4, §5, §6

E. coli DNA polymerase I [10] = molecular target: T4, E. coli DNA polymerase I; settings: 10 μM 4 dNTPs, ddNTP 100 to 2,000 μM; factor versus F762Y multiplied by its absolute ratio

Row | SMILES | percentage of counts in the first three dideoxy-terminated fragments to the total number of counts in the primers capable of being extended (T7 DNA polymerase [1]) | M, calculated exponential decay function (T7 DNA polymerase [1]) | Incorporation Rate Ratios dN/ddN (T7 DNA polymerase [1]) | D, discrimination factor, ratio of use of dNTP to comparable ddNTP (T7 DNA polymerase [1]) | IC50 (Taq DNA polymerase F667Y [2]) | IC50 (Taq DNA polymerase [3]) | IC50 (E. coli DNA polymerase I [4]) | IC50 (T7 DNA polymerase Y526F [5]) | IC50 (T7 DNA polymerase [6]) | Incorporation Rate Ratios dN/ddN (Taq DNA polymerase [7]) | Incorporation Rate Ratios dN/ddN (T7 DNA polymerase Y526F [8]) | M, calculated exponential decay function (Taq DNA polymerase F667Y [9]) | Incorporation Rate Ratios dN/ddN (Taq DNA polymerase F667Y [9]) | D, discrimination factor, ratio of use of dNTP to comparable ddNTP (Taq DNA polymerase F667Y [9]) | Incorporation Rate Ratios dN/ddN (E. coli DNA polymerase I [10])
1 | Nc1ncnc2c1ncn2[C@H]1CC[C@@H](COP(=O)(O)OP(=O)(O)OP(=O)(O)O)O1 [ddATP] | 66% | -0.356 | 3.3 | 2.3 | ~5 µM | > 500 µM | > 500 µM | > 500 µM | ~30 µM | 4,700 | 7,300 | -0.997 | 0.59 | 0.59 | 720
2 | Nc1ccn([C@H]2CC[C@@H](COP(=O)(O)OP(=O)(O)OP(=O)(O)O)O2)c(=O)n1 [ddCTP] | 61% | -0.317 | 3.7 | 2.7 | – | – | – | – | – | 2,600 | 11,000 | -1.44 | 0.32 | 0.32 | 250
3 | Nc1nc2c(ncn2[C@H]2CC[C@@H](COP(=O)(O)OP(=O)(O)OP(=O)(O)O)O2)c(=O)[nH]1 [ddGTP] | 67% | -0.375 | 3.2 | 2.2 | – | – | – | – | – | 1,400 | 6,400 | -1.18 | 0.45 | 0.45 | 140
4 | Cc1cn([C@H]2CC[C@@H](COP(=O)(O)OP(=O)(O)OP(=O)(O)O)O2)c(=O)[nH]c1=O [ddTTP] | 76% | -0.450 | 2.8 | 1.8 | – | – | – | – | – | 4,500 | 8,400 | -1.01 | 0.56 | 0.56 | 1,100
